“And” between values parts separate entries of the source, which are not always exact repeats. Identical values can stand only once.
Tested on: 898857-211-R-J1-PDC complex spheroids, growth % test/control
Test: Anticancer human tumor 898857-211-R-J1-PDC patient-derived melanoma cell line growth inhibition [RAS]
Conditions: for viability, T/C: stronger effect = lower value; active means viability on the fitted dose curve at most 10% of control; inactive means the rest
Text: RAS pathway inhibitors in Combinations in Complex Spheroids
A high-throughput screen of multi-cell type tumor spheroids was designed to identify active combinations of RAS pathway inhibitors and targeted small molecules. Complex spheroids include a stromal component modeled by human endothelial cells (HUVEC) and fibroblasts modeled by human mesenchymal stem cells (MSCs). The concentration ranges selected for each drug and investigational agent were based upon clinically achievable concentrations if the clinical Cmax of the agent was known.
Compounds. The drugs and investigational agents: abemaciclib (NSC768073), cobimetinib (NSC768068), divarasib (GDC6063, NSC841802), docetaxel (NSC628503), GDC-1971 (RLY-1971, NSC841576), gemcitabine (NSC613327), inavolisib (NSC800729), ipatasertib (NSC767898), KB-0742 (NSC834161), MRTX-1133 (NSC836407), osimertinib (NSC779217), RMC-4630 (NSC839698), RMC-6236 (NSC851965), RMC-6291 (NSC852671), Ro-3306 (NSC812927), sapanisertib (NSC764658), SN-38 (NSC673596), staurosporine (NSC755774), SY5609 (NSC837396), and tovorafenib (DAY101, NSC766906), were obtained from the National Cancer Institute (NCI) Developmental Therapeutics Program Chemical Repository. The FDA-approved anticancer drug set is available from the NCI Developmental Therapeutics Program. […] The stock solutions were prepared in dimethyl sulfoxide (DMSO, Sigma-Aldrich, St. Louis, MO, cat. D2650) at 800-fold the tested concentration and stored at -70 degrees C prior to their use. All drugs and investigational agents were tested over a range starting from a high concentration at or near the clinical Cmax and decreasing in half-log increments. If the clinical Cmax for an agent had not been determined, the highest concentration tested was 10 microM.
Cell Culture. All cells were maintained in an incubator at 37 degrees C and 5% CO2 with 95% humidity. The PDC lines were cultured according to standard operating procedures established by the NCI PDMR. All PDCs were thawed and cultured in Matrigel-coated flasks prepared with a working solution of 1X Ham's F-12 nutrient mix, without supplementation (Invitrogen, Waltham, MA, cat. 11765054), 100 U/mL penicillin-streptomycin (Invitrogen, cat. 15140122), and 2.5% Matrigel (Corning Inc., Corning, NY, cat. 354248) for the first three passages. The 362531-283-R-J2-PDC and 782815-120-R-J1-PDC lines were cultured in 6C/Colon 1B media, which includes advanced DMEM/F-12 (Thermo Fisher Scientific, cat. 12634028), 10 mM HEPES (Thermo Fisher Scientific, cat. 15630080), 1X GlutaMAX supplement (Thermo Fisher Scientific, cat. 35050061), 0.1 mg/mL primocin (InvivoGen, San Diego, CA, cat. ant-pm-2), 10% defined fetal bovine serum, heat inactivated (HyClone Laboratories Inc., Logan, UT, cat. SH30070.03HI), 50% L-WRN conditioned media (ATCC, cat. CRL-3276), 1.25 mM N-Acetyl-L-cysteine (Sigma-Aldrich, cat. A9165), 10 mM nicotinamide (Sigma-Aldrich, cat. N0636), 1X B-27 supplement (Thermo Fisher Scientific, cat. 17504044), 1X N-2 supplement (Thermo Fisher Scientific, cat. 17502048), 50 ng/mL human EGF (Thermo Fisher Scientific, cat. PHG0311), and 10 microM Y-27632 dihydrochloride (Tocris Bioscience, cat. 1254). The K12877-001-R-J1-PDC line was cultured in 6I media, which includes all 6C/Colon 1B media plus 10 ng/mL human FGF-10 (PeproTech, cat. 100-26), 1 ng/mL human FGF-2 (PeproTech, cat. 100-18B), 1 µM prostaglandin E2 (Tocris Bioscience, cat. 2296), […] hydrocortisone (Sigma-Aldrich, cat. H4001), and […] bovine insulin (Sigma-Aldrich, cat. I6634). The K86415-001-R-J1-PDC line was cultured in 6D media, which includes all 6C/Colon 1B media components minus the L-WRN conditioned media. The 485176-168-R4-J1-PDC was cultured in PANC media, which includes all 6C/Colon 1B media plus 100 ng/mL human FGF-10 (PeproTech, cat. 100-26), 500 nM SB-431542 (Selleckchem, cat. S1067), and 10 nM gastrin (Tocris Bioscience, cat. 3006). […]
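Further: spheroids exposed to compound for seven days before readout.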
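Wherever viability, T/C is given: 100% = DMSO vehicle control wells.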

CC(=O)OC12COC1CC(O)C1(C)C(=O)C(O)C3=C(C)C(OC(=O)C(O)C(NC(=O)OC(C)(C)C)c4ccccc4)CC(O)(C(OC(=O)c4ccccc4)C21)C3(C)C (stereo unspecified)
< 31.6 nM: IC50 (curve of compound)
inactive: viability, T/C (compound 0.0316 µM) 13% [middle of 4 runs] | viability, T/C (compound 0.1 µM) 13% [middle of 4 runs] | viability, T/C (compound 0.316 µM) 13.3% [middle of 4 runs] | viability, T/C (compound 1 µM) 15.8% [middle of 4 runs] | viability, T/C (compound 3.16 µM) 17.8% [middle of 4 runs] | viability, T/C (compound 10 µM) 20.8% [middle of 4 runs]

CC(C)NCC(C(=O)N1CCN(c2ncnc3c2C(C)CC3O)CC1)c1ccc(Cl)cc1 (stereo unspecified)
inactive: viability, T/C (compound 0.1 µM) 101% [middle of 4 runs] | viability, T/C (compound 0.316 µM) 104% [middle of 4 runs] | viability, T/C (compound 1 µM) 93.2% [middle of 4 runs] | viability, T/C (compound 3.16 µM) 78.1% [middle of 4 runs] | viability, T/C (compound 10 µM) 58.9% [middle of 4 runs]
> 10000 nM: IC50 (curve of compound)

CC(Nc1ccc2c(c1)OCCn1cc(N3C(=O)OCC3C(F)F)nc1-2)C(N)=O (stereo unspecified)
> 10000 nM: IC50 (curve of compound)
inactive: viability, T/C (compound 0.0316 µM) 101% [middle of 4 runs] | viability, T/C (compound 0.1 µM) 90.6% [middle of 4 runs] | viability, T/C (compound 0.316 µM) 102% [middle of 4 runs] | viability, T/C (compound 1 µM) 91.9% [middle of 4 runs] | viability, T/C (compound 3.16 µM) 95.3% [middle of 4 runs] | viability, T/C (compound 10 µM) 70.9% [middle of 4 runs]

CC1(O)CCCC1n1c(=O)c(C(F)F)cc2cnc(NC3CCN(S(C)(=O)=O)CC3)nc21 (stereo unspecified)
232 nM and 169 nM and 149 nM: IC50 (curve of compound)
inactive: viability, T/C (compound 0.0316 µM) 93.3% and 97.5% and 83.3% | viability, T/C (compound 0.1 µM) 58.4% and 53.8% and 49.8% | viability, T/C (compound 0.316 µM) 42.2% (2×) and 39.9% | viability, T/C (compound 1 µM) 45.2% and 35.5% and 38.7% | viability, T/C (compound 3.16 µM) 41% and 30.3% and 45.7% | viability, T/C (compound 10 µM) 21.5% and 15.1% and 17.7%

CCC(CC)c1cc(NC2CCC(N)C2)n2nccc2n1 (stereo unspecified)
inactive: viability, T/C (compound 0.0316 µM) 113% [middle of 4 runs] | viability, T/C (compound 0.1 µM) 99.5% [middle of 4 runs] | viability, T/C (compound 0.316 µM) 97.5% [middle of 4 runs]
1.04 µM [middle of 4 runs]: IC50 (curve of compound)
active: viability, T/C (compound 3.16 µM) 1.39% [middle of 4 runs] | viability, T/C (compound 10 µM) 0.28% [middle of 4 runs]

C[C@@H](NC(=O)c1ncnc(N)c1Cl)c1ncc(C(=O)Nc2cc(C(F)(F)F)c(Cl)cn2)s1
inactive: viability, T/C (compound 0.1 µM) 122% [middle of 4 runs] | viability, T/C (compound 1 µM) 81.2% [middle of 4 runs] | viability, T/C (compound 10 µM) 36.8% [middle of 4 runs]

Cc1nc(N2CCC3(CC2)COC(C)C3N)c(CO)nc1Sc1ccnc(N)c1Cl (stereo unspecified)
> 10000 nM: IC50 (curve of compound)
inactive: viability, T/C (compound 0.0316 µM) 100% [middle of 4 runs] | viability, T/C (compound 0.1 µM) 89.5% [middle of 4 runs] | viability, T/C (compound 0.316 µM) 101% [middle of 4 runs] | viability, T/C (compound 1 µM) 95.5% [middle of 4 runs] | viability, T/C (compound 3.16 µM) 99.2% [middle of 4 runs] | viability, T/C (compound 10 µM) 93.4% [middle of 4 runs]

NC1c2ccccc2OC12CCN(c1cnc3c(N4CCCc5ncccc54)n[nH]c3n1)CC2 (stereo unspecified)
inactive: viability, T/C (compound 0.0316 µM) 98.9% [middle of 4 runs] | viability, T/C (compound 0.1 µM) 88.9% [middle of 4 runs] | viability, T/C (compound 0.316 µM) 97.4% [middle of 4 runs] | viability, T/C (compound 1 µM) 87% [middle of 4 runs] | viability, T/C (compound 3.16 µM) 94.4% [middle of 4 runs]
> 10000 nM and 9390 nM: IC50 (curve of compound)

C=CC(=O)Nc1cc(Nc2nccc(-c3cn(C)c4ccccc34)n2)c(OC)cc1N(C)CCN(C)C + C#Cc1c(F)ccc2cc(O)cc(-c3ncc4c(N5CC6CCC(C5)N6)nc(OCC56CCCN5CC(F)C6)nc4c3F)c12
778 nM: IC50 (curve of first compound, second compound 3.16 µM)
inactive: viability, T/C (second compound 0.0316 µM, first compound 0.00316 µM) 103% | viability, T/C (second compound 0.0316 µM, first compound 0.01 µM) 92.3% | viability, T/C (second compound 0.0316 µM, first compound 0.0316 µM) 103% | viability, T/C (second compound 0.0316 µM, first compound 0.1 µM) 100% | viability, T/C (second compound 0.0316 µM, first compound 0.316 µM) 85.4% | viability, T/C (second compound 0.0316 µM, first compound 1 µM) 65.7% | viability, T/C (second compound 0.1 µM, first compound 0.00316 µM) 108% | viability, T/C (second compound 0.1 µM, first compound 0.01 µM) 105% | viability, T/C (second compound 0.1 µM, first compound 0.0316 µM) 107% | viability, T/C (second compound 0.1 µM, first compound 0.1 µM) 98.6% | viability, T/C (second compound 0.1 µM, first compound 0.316 µM) 94.7% | viability, T/C (second compound 0.1 µM, first compound 1 µM) 62.1% | viability, T/C (second compound 0.316 µM, first compound 0.00316 µM) 113% | viability, T/C (second compound 0.316 µM, first compound 0.01 µM) 101% | viability, T/C (second compound 0.316 µM, first compound 0.0316 µM) 111% | viability, T/C (second compound 0.316 µM, first compound 0.1 µM) 96.2% | viability, T/C (second compound 0.316 µM, first compound 0.316 µM) 85.8% | viability, T/C (second compound 0.316 µM, first compound 1 µM) 49.9% | viability, T/C (second compound 1 µM, first compound 0.00316 µM) 109% | viability, T/C (second compound 1 µM, first compound 0.01 µM) 95.8% | viability, T/C (second compound 1 µM, first compound 0.0316 µM) 109% | viability, T/C (second compound 1 µM, first compound 0.1 µM) 97.6% | viability, T/C (second compound 1 µM, first compound 0.316 µM) 93.6% | viability, T/C (second compound 1 µM, first compound 1 µM) 54.5% | viability, T/C (second compound 3.16 µM, first compound 0.00316 µM) 109% | viability, T/C (second compound 3.16 µM, first compound 0.01 µM) 105% | viability, T/C (second compound 3.16 µM, first compound 0.0316 µM) 102% | viability, T/C (second compound 3.16 µM, first compound 0.1 µM) 105% | viability, T/C (second compound 3.16 µM, first compound 0.316 µM) 87.6% | viability, T/C (second compound 3.16 µM, first compound 1 µM) 39% | viability, T/C (second compound 10 µM, first compound 0.00316 µM) 65.7% | viability, T/C (second compound 10 µM, first compound 0.01 µM) 48.1% | viability, T/C (second compound 10 µM, first compound 0.0316 µM) 45.1% | viability, T/C (second compound 10 µM, first compound 0.1 µM) 45.5% | viability, T/C (second compound 10 µM, first compound 0.316 µM) 19.9%
24 nM: IC50 (curve of first compound, second compound 10 µM)
> 1000 nM: IC50 (curve of first compound, second compound 0.0316 µM) | IC50 (curve of first compound, second compound 0.1 µM) | IC50 (curve of first compound, second compound 0.316 µM) | IC50 (curve of first compound, second compound 1 µM)
active: viability, T/C (second compound 10 µM, first compound 1 µM) 0.87%
